Experimental data reported in US20190350918A1, “PPARy AGONIST FOR TREATMENT OF HUNTINGTON'S DISEASE” (Coherus Biosciences, Inc., priority 2017, published 2019).

Columns and labels:
[1] = system: R6/2 Huntington's mice; test: R6/2 Huntington's mice: Huntington disease signs and symptoms; assay type: in vivo, mouse; conditions: R6/2 mice; 1 mg/kg, 3 mg/kg, and 6 mg/kg
Description: INT-131 is evaluated in R6/2 Huntington's mice. R6/2 mice express mutant human exon 1 of the HTT gene. R6/2 mice develop Huntington phenotypes, which progress over time. These mice display motor and cognitive deficits, cortical cellular degeneration and striatal cellular morphological changes, as well as alterations in cortical and striatal synaptic transmission. In particular, R6/2 mice develop a loss of coordination, tremors, hypokinesis, abnormal gait, neuropathy, and premature death. After mice develop Huntington symptoms, the mice are administered INT-131 or a placebo at a regular dosing interval over a period of time. INT-131 doses include 1 mg/kg, 3 mg/kg, and 6 mg/kg. Huntington disease signs and symptoms are evaluated in each group over the period of time. After mice develop Huntington symptoms, the mice are administered INT-131 or another therapy for treating Huntington's disease at a regular dosing interval over a period of time. INT-131 doses include 1 mg/kg, 3 mg/kg, and 6 mg/kg. Other therapies include those approved for treatment and those in development for treating Huntington's disease.

[2] = system: HbA1c; conditions: DePaoli, et al. Diabetes Care 2014; cited from earlier work
[3] = subjects taking INT131 versus pioglitazone; DePaoli, et al. Diabetes Care 2014; cited from earlier work
[4] = system: adiponectin; test: 24-week randomized, double-blind, placebo-controlled study in type 2 diabetes subjects: serum adiponectin levels; assay type: in vivo, human
Description: A randomized, double-blind, placebo-controlled, 24-week study was conducted in which adiponectin levels were measured. […] 367 subjects with type 2 diabetes (TD2)—a disease in which patient adiponectin levels are reduced—were randomly assigned to receive either 0.5, 1, 2 or 3 milligrams (“mg”) of INT131 besylate, 45 mg of pioglitazone or placebo daily for 24 weeks. To measure adiponectin levels blood was drawn at Weeks 0, 2, 6, 12 and 24. At baseline (Week 0) mean adiponectin levels were 1.94 micrograms per milliliter (“μg/mL”). The mean adiponectin levels at baseline and Week 24, and the mean change in adiponectin levels from baseline (Week 0) to Week 24 are disclosed in Table 1, below. The standard deviation for samples tested in each group is listed in (parenthesis). Mean baseline adiponectin values were similar for the treatment groups.

[5] = system: adiponectin; test: 14-day study in healthy subjects: serum adiponectin levels; assay type: in vivo, human
Description: A study was conducted to determine the effect of INT131 on serum adiponectin levels. Thirty healthy subjects were randomly selected to receive either placebo, 0.1 mg INT131, 1 mg INT131 or 4 mg INT131 daily for 14 days. To measure adiponectin levels blood was drawn at Days 1, 4, 8 and 14.

[6] = system: HbA1c; test: 24-week study in type 2 diabetes subjects: HbA1c levels; assay type: in vivo, human

SMILES | Huntington's disease symptoms versus placebo [1] | progression and development of Huntington's disease versus placebo [1] | slowing progression or development and treating signs and symptoms of Huntington's disease versus another therapy [1] | reducing HbA1c levels compared with 45 mg of pioglitazone [2] | side effects compared with pioglitazone [3] | adiponectin levels, treatment comparison with pioglitazone 45 mg ([4]; 0.5 mg, 1 mg, and 3 mg doses of INT131, p≤0.0408) | adiponectin levels, treatment comparison with placebo ([4]; 1 mg, 2 mg, and 3 mg doses of INT131, p≤0.0109) | mean change in adiponectin from baseline to Week 24 with LOCF ([4]; 2 mg group) | mean change in adiponectin from baseline to Week 24 with LOCF ([4]; INT131 0.5 mg group) | mean change in adiponectin from baseline to Week 24 with LOCF ([4]; INT131 1 mg group) | mean change in adiponectin from baseline to Week 24 with LOCF ([4]; INT131 3 mg group) | upregulation of serum adiponectin levels compared with pioglitazone ([4]; INT131 at either 2 or 3 mg versus 45 mg pioglitazone) | change in serum adiponectin levels Day 1 to Day 14 and over placebo ([5]; 0.1 mg INT131 daily for 14 days) | change in serum adiponectin levels over placebo and from Day 1 to Day 14 ([5]; 1 mg or 4 mg INT131 daily for 14 days) | HbA1c levels as compared to placebo ([6]; 1, 2, and 3 mg doses of INT131, 24 weeks) | reduction of HbA1c levels compared with 45 mg of pioglitazone ([6]; 2 and 3 mg doses of INT131, 24 weeks) | mean change in adiponectin from baseline to Week 24 with LOCF ([4]; pioglitazone 45 mg group)
O=S(=O)(Nc1cc(Cl)c(Oc2cnc3ccccc3c2)c(Cl)c1)c1ccc(Cl)cc1Cl [INT131] | reduced Huntington's disease symptoms | slows progression and development | as effective, or more effective | equally efficacious | less edema, weight gain, and hemodilution | statistically significant | statistically significant | 3.27 µg/mL | 0.56 µg/mL | 1.28 µg/mL | 3.83 µg/mL | greater upregulation | no significant change | significant change | statistically significant reduction | at least as well as 45 mg of pioglitazone | –
CCc1ccc(CCOc2ccc(CC3SC(=O)NC3=O)cc2)nc1 (centres unmarked) [Pioglitazone, pioglitazone, reference compound] | – | – | – | – | – | – | – | – | – | – | – | – | – | – | – | – | 2.96 µg/mL
